# Results: ChEMBL document CHEMBL4725427, “Synthesis and SAR Studies of 1H-Pyrrolo[2,3-b]pyridine-2-carboxamides as Phosphodiesterase 4B (PDE4B) Inhibitors” (ACS Med Chem Lett, 2020)
# Tests used:
# [1] = Metabolic stability in human Hepatocyte assessed as half life; format: ADME, tissue-based; conditions: hepatocytes
# [2] = molecular target: Dual specificity calcium/calmodulin-dependent 3',5'-cyclic nucleotide phosphodiesterase 1A (Homo sapiens) (UniProt P54750); experiment: Inhibition of recombinant human N-terminal GST-tagged PDE1A1 expressed in baculovirus infected Sf9 cells at 10 uM by radioligand assay relative to control
# Sequence of Dual specificity calcium/calmodulin-dependent 3',5'-cyclic nucleotide phosphodiesterase 1A (Homo sapiens) (P54750 whole entry, the tested form may be a part): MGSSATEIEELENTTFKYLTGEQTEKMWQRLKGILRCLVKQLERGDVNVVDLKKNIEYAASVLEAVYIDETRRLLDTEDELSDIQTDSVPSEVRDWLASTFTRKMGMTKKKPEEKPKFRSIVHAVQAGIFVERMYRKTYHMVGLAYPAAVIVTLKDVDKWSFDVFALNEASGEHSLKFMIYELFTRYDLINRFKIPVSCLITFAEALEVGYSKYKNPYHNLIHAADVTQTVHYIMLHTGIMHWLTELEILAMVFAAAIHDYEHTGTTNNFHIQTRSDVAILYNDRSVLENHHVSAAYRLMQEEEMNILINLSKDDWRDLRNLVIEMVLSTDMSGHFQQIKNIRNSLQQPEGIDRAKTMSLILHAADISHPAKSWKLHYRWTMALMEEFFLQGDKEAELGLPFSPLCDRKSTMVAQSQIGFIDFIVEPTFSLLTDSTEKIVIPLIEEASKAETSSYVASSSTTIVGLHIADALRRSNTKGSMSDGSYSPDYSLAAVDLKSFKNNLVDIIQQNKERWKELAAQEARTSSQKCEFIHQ
# [3] = molecular target: cGMP-dependent 3',5'-cyclic phosphodiesterase (Homo sapiens) (UniProt O00408); experiment: Inhibition of recombinant human N-terminal FLAG-tagged PDE2A1 (2 to 941 residues) expressed in baculovirus infected Sf9 cells at 10 uM by radioligand assay relative to control
# Sequence of cGMP-dependent 3',5'-cyclic phosphodiesterase (Homo sapiens) (O00408 whole entry, the tested form may be a part): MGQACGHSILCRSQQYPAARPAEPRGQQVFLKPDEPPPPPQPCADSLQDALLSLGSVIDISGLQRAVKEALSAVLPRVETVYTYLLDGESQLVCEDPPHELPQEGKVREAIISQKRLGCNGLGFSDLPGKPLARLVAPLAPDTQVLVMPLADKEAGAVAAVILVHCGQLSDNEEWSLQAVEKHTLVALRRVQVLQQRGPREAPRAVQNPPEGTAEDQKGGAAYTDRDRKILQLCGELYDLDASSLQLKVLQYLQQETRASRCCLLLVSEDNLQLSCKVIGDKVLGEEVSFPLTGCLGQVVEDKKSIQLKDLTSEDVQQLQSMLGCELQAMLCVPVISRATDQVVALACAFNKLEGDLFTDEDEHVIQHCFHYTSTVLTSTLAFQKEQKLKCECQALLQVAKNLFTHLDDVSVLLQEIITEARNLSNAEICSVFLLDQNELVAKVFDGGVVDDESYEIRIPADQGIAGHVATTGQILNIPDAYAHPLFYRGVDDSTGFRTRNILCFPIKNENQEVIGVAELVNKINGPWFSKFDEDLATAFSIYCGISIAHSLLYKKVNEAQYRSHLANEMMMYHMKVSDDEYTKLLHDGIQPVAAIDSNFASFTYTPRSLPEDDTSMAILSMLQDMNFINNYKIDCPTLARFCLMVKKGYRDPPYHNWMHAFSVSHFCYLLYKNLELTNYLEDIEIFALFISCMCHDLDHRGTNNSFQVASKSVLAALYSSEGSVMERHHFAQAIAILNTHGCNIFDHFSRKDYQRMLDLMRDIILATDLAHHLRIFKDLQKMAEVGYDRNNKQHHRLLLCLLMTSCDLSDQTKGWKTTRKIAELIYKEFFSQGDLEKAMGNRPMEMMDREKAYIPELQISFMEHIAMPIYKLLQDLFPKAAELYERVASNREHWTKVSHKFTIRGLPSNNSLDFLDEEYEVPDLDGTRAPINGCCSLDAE
# [4] = molecular target: cGMP-inhibited 3',5'-cyclic phosphodiesterase 3B (Homo sapiens) (UniProt Q13370); experiment: Inhibition of recombinant human N-terminal His-tagged PDE3B (592 to end residues) expressed in baculovirus infected Sf9 cells at 10 uM by radioligand assay relative to control
# [5] = molecular target: 3',5'-cyclic-AMP phosphodiesterase 4C (Homo sapiens) (UniProt Q08493); experiment: Inhibition of recombinant human N-terminal GST-tagged PDE4C1 expressed in baculovirus infected Sf9 cells at 10 uM by radioligand assay relative to control
# [6] = molecular target: cGMP-specific 3',5'-cyclic phosphodiesterase (Homo sapiens) (UniProt O76074); experiment: Inhibition of recombinant human N-terminal GST-tagged PDE5A1 expressed in baculovirus infected Sf9 cells at 10 uM by radioligand assay relative to control
# [7] = molecular target: High affinity 3',5'-cyclic-AMP phosphodiesterase 7A (Homo sapiens) (UniProt Q13946); experiment: Inhibition of recombinant human N-terminal GST-tagged PDE7A1 (122 to end residues) expressed in baculovirus infected Sf9 cells at 10 uM by radioligand assay relative to control
# Sequence of High affinity 3',5'-cyclic-AMP phosphodiesterase 7A (Homo sapiens) (Q13946 whole entry): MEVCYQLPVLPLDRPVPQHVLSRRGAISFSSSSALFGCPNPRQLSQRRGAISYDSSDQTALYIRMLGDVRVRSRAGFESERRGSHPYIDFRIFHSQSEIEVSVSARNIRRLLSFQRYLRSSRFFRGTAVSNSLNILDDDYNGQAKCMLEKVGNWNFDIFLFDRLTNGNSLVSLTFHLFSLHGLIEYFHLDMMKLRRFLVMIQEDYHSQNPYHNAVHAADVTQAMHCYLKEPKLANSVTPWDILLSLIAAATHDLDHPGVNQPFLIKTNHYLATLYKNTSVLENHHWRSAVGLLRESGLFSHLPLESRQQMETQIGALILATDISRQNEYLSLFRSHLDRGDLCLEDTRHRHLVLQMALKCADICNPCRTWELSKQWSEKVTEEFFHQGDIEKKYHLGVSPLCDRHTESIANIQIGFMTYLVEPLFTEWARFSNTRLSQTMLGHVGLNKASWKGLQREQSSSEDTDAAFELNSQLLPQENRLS
# [8] = molecular target: High affinity cGMP-specific 3',5'-cyclic phosphodiesterase 9A (Homo sapiens) (UniProt O76083); experiment: Inhibition of recombinant human N-terminal GST-tagged PDE9A2 expressed in baculovirus infected Sf9 cells at 10 uM by radioligand assay relative to control
# [9] = molecular target: 5-hydroxytryptamine receptor 1B (Homo sapiens) (UniProt P28222); experiment: Inhibition of 5HT1B (unknown origin) relative to control; conditions: concentration not given here
# Sequence of 5-hydroxytryptamine receptor 1B (Homo sapiens) (P28222 whole entry): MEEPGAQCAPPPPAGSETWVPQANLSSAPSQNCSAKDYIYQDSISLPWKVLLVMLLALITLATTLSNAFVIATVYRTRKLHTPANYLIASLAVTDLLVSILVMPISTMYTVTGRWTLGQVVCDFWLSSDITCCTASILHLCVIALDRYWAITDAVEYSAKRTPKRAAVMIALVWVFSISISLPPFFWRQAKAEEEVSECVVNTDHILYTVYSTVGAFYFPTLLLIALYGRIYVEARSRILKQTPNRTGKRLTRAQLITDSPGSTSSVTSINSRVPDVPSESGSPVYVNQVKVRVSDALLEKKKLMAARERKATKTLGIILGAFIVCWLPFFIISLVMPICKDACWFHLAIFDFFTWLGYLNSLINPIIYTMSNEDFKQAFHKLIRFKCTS
# [10] = molecular target: 5-hydroxytryptamine receptor 1E (Homo sapiens) (UniProt P28566); experiment: Inhibition of 5HT1E (unknown origin) relative to control; conditions: concentration not given here
# [11] = molecular target: 5-hydroxytryptamine receptor 2B (Homo sapiens) (UniProt P41595); experiment: Inhibition of 5HT2B (unknown origin) relative to control; conditions: concentration not given here
# [12] = molecular target: 5-hydroxytryptamine receptor 2C (Homo sapiens) (UniProt P28335); experiment: Inhibition of 5HT2C (unknown origin) relative to control; conditions: concentration not given here
# [13] = molecular target: 5-hydroxytryptamine receptor 5A (Homo sapiens) (UniProt P47898); experiment: Inhibition of 5HT5A (unknown origin) relative to control; conditions: concentration not given here
# [14] = molecular target: 5-hydroxytryptamine receptor 6 (Homo sapiens) (UniProt P50406); experiment: Inhibition of 5HT6 (unknown origin) relative to control; conditions: concentration not given here
# [15] = molecular target: 5-hydroxytryptamine receptor 7 (Homo sapiens) (UniProt P34969); experiment: Inhibition of 5HT7A (unknown origin) relative to control; conditions: concentration not given here
# [16] = molecular target: Alpha-1D adrenergic receptor (Homo sapiens) (UniProt P25100); experiment: Inhibition of adrenoceptor alpha 1D (unknown origin) relative to control; conditions: concentration not given here
# Sequence of Alpha-1D adrenergic receptor (Homo sapiens) (P25100 whole entry): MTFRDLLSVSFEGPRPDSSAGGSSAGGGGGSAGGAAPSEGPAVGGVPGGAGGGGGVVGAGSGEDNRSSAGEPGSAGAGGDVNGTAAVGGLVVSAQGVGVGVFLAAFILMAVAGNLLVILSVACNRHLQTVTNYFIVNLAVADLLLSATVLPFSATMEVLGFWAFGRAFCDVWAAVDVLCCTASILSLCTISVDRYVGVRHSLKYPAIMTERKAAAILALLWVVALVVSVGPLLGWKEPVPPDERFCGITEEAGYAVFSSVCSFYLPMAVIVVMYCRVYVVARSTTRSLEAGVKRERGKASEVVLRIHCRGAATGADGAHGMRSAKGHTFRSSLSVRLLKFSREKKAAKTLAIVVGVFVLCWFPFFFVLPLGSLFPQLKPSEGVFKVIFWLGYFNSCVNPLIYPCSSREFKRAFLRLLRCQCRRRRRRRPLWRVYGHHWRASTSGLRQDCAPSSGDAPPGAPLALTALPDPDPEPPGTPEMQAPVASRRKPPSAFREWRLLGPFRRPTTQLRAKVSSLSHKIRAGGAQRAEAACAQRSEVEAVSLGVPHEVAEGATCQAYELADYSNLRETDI
# [17] = molecular target: Alpha-2B adrenergic receptor (Homo sapiens) (UniProt P18089); experiment: Inhibition of adrenoceptor alpha 2B (unknown origin) relative to control; conditions: concentration not given here
# Rattus norvegicus = species: Rattus norvegicus; experiment: Inhibition of rat brain BZP relative to control; format: tissue-based; conditions: dose or concentration not given here
# [18] = molecular target: D(2) dopamine receptor (Homo sapiens) (UniProt P14416); experiment: Inhibition of D2 (unknown origin) relative to control; conditions: concentration not given here
# [19] = molecular target: D(1B) dopamine receptor (Homo sapiens) (UniProt P21918); experiment: Inhibition of D5 (unknown origin) relative to control; conditions: concentration not given here
# Sequence of D(1B) dopamine receptor (Homo sapiens) (P21918 whole entry): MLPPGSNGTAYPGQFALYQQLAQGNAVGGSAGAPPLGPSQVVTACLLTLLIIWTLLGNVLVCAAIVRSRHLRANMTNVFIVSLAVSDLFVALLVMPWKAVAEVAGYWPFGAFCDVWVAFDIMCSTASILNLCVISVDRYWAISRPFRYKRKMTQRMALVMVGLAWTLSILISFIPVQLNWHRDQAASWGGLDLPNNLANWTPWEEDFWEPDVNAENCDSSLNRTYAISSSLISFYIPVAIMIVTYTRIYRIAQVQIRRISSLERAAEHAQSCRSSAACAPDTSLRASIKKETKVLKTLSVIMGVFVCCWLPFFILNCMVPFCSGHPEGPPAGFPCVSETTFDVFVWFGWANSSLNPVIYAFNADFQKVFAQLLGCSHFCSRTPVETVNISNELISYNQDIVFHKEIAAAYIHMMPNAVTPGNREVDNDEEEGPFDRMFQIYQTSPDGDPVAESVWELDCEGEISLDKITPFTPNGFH
# [20] = molecular target: Sodium-dependent dopamine transporter (Homo sapiens) (UniProt Q01959); experiment: Inhibition of DAT receptor (unknown origin) relative to control; conditions: concentration not given here
# [21] = molecular target: Histamine H3 receptor (Homo sapiens) (UniProt Q9Y5N1); experiment: Inhibition of histamine H3 receptor (unknown origin) relative to control; conditions: concentration not given here
# Sequence of Histamine H3 receptor (Homo sapiens) (Q9Y5N1 whole entry): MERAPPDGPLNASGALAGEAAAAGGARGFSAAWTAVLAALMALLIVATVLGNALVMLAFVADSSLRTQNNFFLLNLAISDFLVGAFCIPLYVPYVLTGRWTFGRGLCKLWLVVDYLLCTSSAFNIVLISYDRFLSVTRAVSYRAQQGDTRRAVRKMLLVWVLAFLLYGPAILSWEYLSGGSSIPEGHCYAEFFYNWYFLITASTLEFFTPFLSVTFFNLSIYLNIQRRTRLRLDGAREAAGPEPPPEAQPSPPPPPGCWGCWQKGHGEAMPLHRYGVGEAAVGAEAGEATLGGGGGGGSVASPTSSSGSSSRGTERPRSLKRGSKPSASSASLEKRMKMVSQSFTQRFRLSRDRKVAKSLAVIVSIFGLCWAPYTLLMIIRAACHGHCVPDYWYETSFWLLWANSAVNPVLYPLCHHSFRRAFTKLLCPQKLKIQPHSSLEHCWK
# [22] = molecular target: Kappa-type opioid receptor (Homo sapiens) (UniProt P41145); experiment: Inhibition of KOR (unknown origin) relative to control; conditions: concentration not given here
# Sequence of Kappa-type opioid receptor (Homo sapiens) (P41145 whole entry): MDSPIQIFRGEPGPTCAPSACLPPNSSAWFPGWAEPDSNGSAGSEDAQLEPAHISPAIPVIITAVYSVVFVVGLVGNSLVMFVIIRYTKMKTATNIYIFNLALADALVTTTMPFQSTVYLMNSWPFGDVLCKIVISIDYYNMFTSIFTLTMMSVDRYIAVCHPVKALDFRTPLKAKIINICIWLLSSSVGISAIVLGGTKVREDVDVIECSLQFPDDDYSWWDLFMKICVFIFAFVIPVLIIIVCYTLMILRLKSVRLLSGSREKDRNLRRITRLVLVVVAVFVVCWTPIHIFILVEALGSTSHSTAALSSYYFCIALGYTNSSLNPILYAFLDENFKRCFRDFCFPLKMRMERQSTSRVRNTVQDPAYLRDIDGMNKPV
# [23] = molecular target: Muscarinic acetylcholine receptor M1 (Homo sapiens) (UniProt P11229); experiment: Inhibition of muscarinic M1 receptor (unknown origin) relative to control; conditions: concentration not given here
# [24] = molecular target: Muscarinic acetylcholine receptor M4 (Homo sapiens) (UniProt P08173); experiment: Inhibition of muscarinic M4 receptor (unknown origin) relative to control; conditions: concentration not given here
# [25] = molecular target: Muscarinic acetylcholine receptor M5 (Homo sapiens) (UniProt P08912); experiment: Inhibition of muscarinic M5 receptor (unknown origin) relative to control; conditions: concentration not given here
# [26] = molecular target: Mu-type opioid receptor (Homo sapiens) (UniProt P35372); experiment: Inhibition of MOR (unknown origin) relative to control; conditions: concentration not given here
# Sequence of Mu-type opioid receptor (Homo sapiens) (P35372 whole entry): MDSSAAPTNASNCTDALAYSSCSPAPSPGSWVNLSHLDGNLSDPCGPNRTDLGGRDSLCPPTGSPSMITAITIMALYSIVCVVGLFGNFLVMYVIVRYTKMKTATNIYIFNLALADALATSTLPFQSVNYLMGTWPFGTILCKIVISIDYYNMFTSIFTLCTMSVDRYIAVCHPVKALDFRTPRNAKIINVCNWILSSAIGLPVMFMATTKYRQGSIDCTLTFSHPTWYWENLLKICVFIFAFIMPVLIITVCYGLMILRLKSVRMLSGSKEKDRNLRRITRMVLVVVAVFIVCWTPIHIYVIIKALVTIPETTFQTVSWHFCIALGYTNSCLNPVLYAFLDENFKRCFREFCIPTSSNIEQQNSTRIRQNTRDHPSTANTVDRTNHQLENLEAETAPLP
# [27] = molecular target: Sigma intracellular receptor 2 (Homo sapiens, UniProt Q5BJF2); experiment: Inhibition of sigma2 receptor (unknown origin)
# Sequence of Sigma intracellular receptor 2 (Q5BJF2 whole entry): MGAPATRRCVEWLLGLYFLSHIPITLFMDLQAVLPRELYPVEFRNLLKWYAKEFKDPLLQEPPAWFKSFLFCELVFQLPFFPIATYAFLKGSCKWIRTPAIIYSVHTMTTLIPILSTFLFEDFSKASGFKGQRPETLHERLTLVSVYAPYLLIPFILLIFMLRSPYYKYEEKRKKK
smiles,measurement,setting,value
O=C(c1nc2cccnc2n1-c1ccc(Cl)c(Cl)c1)N1CC(F)(F)C1,half-life,[1],49.4 min
same,inhibition,[2],< 50%
same,inhibition,[3],< 50%
same,inhibition,[4],87%
same,inhibition,[5],< 50%
same,inhibition,[6],< 50%
same,inhibition,[7],< 50%
same,inhibition,[8],< 50%
same,inhibition,[9],< 50%
same,inhibition,[10],< 50%
same,inhibition,[11],< 50%
same,inhibition,[12],59%
same,inhibition,[13],< 50%
same,inhibition,[14],< 50%
same,inhibition,[15],< 50%
same,inhibition,[16],< 50%
same,inhibition,[17],< 50%
same,inhibition,Rattus norvegicus,< 50%
same,inhibition,[18],< 50%
same,inhibition,[19],< 50%
same,inhibition,[20],< 50%
same,inhibition,[21],< 50%
same,inhibition,[22],< 50%
same,inhibition,[23],< 50%
same,inhibition,[24],< 50%
same,inhibition,[25],< 50%
same,inhibition,[26],< 50%
same,IC50,[27],7.8 µM
